One data set addresses T1, Trypsin (Bos taurus, UniProt P00760).
T1 sequence (P00760 24-246): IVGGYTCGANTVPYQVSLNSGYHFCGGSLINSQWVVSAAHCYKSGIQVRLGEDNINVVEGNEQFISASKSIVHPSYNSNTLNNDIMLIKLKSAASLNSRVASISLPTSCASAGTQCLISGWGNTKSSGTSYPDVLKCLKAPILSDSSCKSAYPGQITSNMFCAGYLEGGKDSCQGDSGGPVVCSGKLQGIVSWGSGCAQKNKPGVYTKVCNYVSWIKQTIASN
Briefly: Inhibitory effect on ester-hydrolyzing activity of trypsin (TAMe substrate). It counts as biochemical. Conditions: for IC50: pH 8.6, 37° C., Table 4 bracketed value, read-out: Trypsin ID50; for inhibition at 1000 µM: read-out: Trypsin percent inhibition. The method, then: (§1) The enzyme-inhibitory activities in vitro of the compounds of this invention were measured by the following procedure according to the method of M. Muramatsu et al. [[…]. […] After the incubation, 1.5 ml of 2 M alkaline hydroxylamine was added and thoroughly mixed, and allowed to stand at room temperature for 15 minutes.

For another data set, the target named is Human Plasmin (Homo sapiens, UniProt P00747). Briefly: Inhibitory effect on ester-hydrolyzing activity of human plasmin (TAMe substrate). It counts as biochemical. The following applies: for IC50: Table 4 bracketed value, read-out: Plasmin ID50; for inhibition at 1000 µM: read-out: Plasmin percent inhibition. The procedure: The enzyme-inhibitory activities in vitro of the compounds of this invention were measured by the following procedure according to the method of M. Muramatsu et al. [[…]. […] After the incubation, 1.5 ml of 2 M alkaline hydroxylamine was added and thoroughly mixed, and allowed to stand at room temperature for 15 minutes. […] It was measured by using 0.1 ml of plasmin (generated by activation of plasminogen with streptokinase) and TAMe as substrate following the method described in (1).

The next data set addresses Bovine Thrombin (Bos taurus, UniProt P00735). Briefly: Inhibitory effect on ester-hydrolyzing activity of bovine thrombin (TAMe substrate). The class given is biochemical. The method, then: The enzyme-inhibitory activities in vitro of the compounds of this invention were measured by the following procedure according to the method of M. Muramatsu et al. [M. Muramatsu, T. Onishi, S. Makino, Y. Hayashi and S. Fujii: J. Biochem., 58, 214 (1965)]
To 0.1 ml of trypsin (5 μg/ml) were added 0.5 ml of 0.1 M borate buffer solution (pH 8.6) containing 10 mM CaCl2, and 0.1 ml of a varying concentration of an inhibitor solution, and preincubation was carried out at 37° C. for 5 minutes. Then, 10 μmoles of the substrate, TAMe (tosylarginine methyl ester), was added, and incubation was preformed at 37° C. for 30 minutes.
After the incubation, 1.5 ml of 2 M alkaline hydroxylamine was added and thoroughly mixed, and allowed to stand at room temperature for 15 minutes. Then, 1.0 ml of each of 18% trichloroacetic acid, 4 N HCl and 10% FeCl3 was added and thoroughly mixed. If necessary, the mixture was centrifuged at 3,000 rpm for 10 minutes, and the absorbance of the supernatant was measured at 530 nm.
It was measured by using 0.4 ml of bovine thrombin […], 0.02 M sodium phosphate buffer solution (pH 7.4) and TAMe as substrate following the method described in (1).

For another data set, the target named is T2, Human Cl Esterase (Homo sapiens, UniProt P09871).
T2 sequence (P09871 438-688 limits assumed): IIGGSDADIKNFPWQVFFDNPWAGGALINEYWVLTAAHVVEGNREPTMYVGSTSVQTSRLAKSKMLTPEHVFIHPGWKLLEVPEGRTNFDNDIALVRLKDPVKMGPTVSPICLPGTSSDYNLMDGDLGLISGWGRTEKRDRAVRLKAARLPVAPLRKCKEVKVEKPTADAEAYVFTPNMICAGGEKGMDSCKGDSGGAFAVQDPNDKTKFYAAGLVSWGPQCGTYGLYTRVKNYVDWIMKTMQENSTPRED
T2 sequence (P09871 16-437 partner limits assumed): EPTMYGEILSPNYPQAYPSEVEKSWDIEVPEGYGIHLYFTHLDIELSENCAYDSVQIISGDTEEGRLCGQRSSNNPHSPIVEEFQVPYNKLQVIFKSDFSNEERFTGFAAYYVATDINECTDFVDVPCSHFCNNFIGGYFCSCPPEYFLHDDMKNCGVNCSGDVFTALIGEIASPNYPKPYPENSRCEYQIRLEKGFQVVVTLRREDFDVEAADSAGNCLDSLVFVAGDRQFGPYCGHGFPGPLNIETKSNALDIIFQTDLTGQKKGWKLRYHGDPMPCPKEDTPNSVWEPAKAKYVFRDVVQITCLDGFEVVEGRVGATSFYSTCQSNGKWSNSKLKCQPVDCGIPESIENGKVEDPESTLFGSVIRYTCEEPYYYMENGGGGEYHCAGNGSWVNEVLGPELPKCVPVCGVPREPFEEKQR
Briefly: Inhibitory effect on ester-hydrolyzing activity of human Cl esterase (ATEe substrate). The class given is biochemical. The following applies: for IC50: in vitro, ATEe, pH 7.4, Table 4 bracketed value, read-out: Cl-esterase ID50.

The next data set relates to thrombin. In words: Inhibitory activity on thrombus formation: protection from lethal thrombin injection in mice. The class given is in vivo, mice (ddY strain). Conditions: 10 minutes before thrombin 300 NIH units/kg i.v., No. 91 in 2.5% gum arabic. The method, then:
White male mice (ddY strain), 4 weeks age and weighing 18-27 g, were used throughout the experiments. […] The intravenous injection of 300 NIH units/kg of thrombin over 30 seconds into mice was lethal to all animals. The compounds were intraperitoneally administered in doses of 1, 10, and 100 mg/kg in saline unless otherwise described.
Compounds were intraperitoneally administered 10 minutes before thrombin injection. Compound No. 91 was dissolved in 2.5% gum arabic.

The nature of data set [1]: Acute toxicity (LD50) by intraperitoneal administration in mice. Conditions: mouse, in vivo, ip.
Data set [2] deals with clotting activity of thrombin. Briefly: Inhibitory activity on plasma clotting (rabbit platelet poor plasma, thrombin-induced). It counts as biochemical. The method, then:
Blood was drawn from carotid artery of an ether anesthetized rabbit with 1/10 volume of 3.8% sodium citrate. Platelet poor plasma (PPP) was prepared from citrated blood which was centrifuged at 3,000 r.p.m. for 15 minutes at 4° C. PPP, 0.9 ml, was taken into cell, 10μ of a compound solution was added and incubated at 37° C. for 10 minutes. […] Compounds were dissolved in distilled water or 50% dimethyl sulfoxide (0.5% final concentration).

Another data set addresses Human Plasma Kallikrein (Homo sapiens, UniProt P03952). In words: Inhibitory effect on ester-hydrolyzing activity of human plasma kallikrein (TAMe substrate). The class given is biochemical. The following applies: for IC50: Table 4 bracketed value, read-out: Kallikrein ID50. The procedure:
as §1

The structures appear in SMILES notation. Read-outs that look alike come from different tables or passages of the source.

Sequence of Human Plasmin (P00747 581-810 limits assumed): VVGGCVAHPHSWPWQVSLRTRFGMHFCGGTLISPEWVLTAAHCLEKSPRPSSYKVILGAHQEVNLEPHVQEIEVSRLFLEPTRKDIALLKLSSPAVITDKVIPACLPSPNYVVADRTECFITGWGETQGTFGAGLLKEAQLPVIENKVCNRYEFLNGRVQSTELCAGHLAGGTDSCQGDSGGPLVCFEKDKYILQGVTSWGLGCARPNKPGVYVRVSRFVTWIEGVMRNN
Sequence of Human Plasmin (P00747 97-580 partner limits assumed): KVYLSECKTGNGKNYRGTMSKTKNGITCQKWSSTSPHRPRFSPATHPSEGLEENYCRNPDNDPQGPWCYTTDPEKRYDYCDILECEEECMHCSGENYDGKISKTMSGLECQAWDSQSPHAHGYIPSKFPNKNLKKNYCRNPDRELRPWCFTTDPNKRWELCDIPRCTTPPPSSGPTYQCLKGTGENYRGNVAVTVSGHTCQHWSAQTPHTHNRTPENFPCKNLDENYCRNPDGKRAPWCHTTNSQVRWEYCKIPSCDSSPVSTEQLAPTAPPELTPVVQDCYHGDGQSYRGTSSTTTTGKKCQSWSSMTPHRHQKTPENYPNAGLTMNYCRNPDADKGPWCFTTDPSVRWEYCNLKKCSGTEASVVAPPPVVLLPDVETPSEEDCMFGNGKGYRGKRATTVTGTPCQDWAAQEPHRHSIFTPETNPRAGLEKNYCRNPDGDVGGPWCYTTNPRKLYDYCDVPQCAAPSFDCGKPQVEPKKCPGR
Sequence of Human Plasma Kallikrein (P03952 391-638 limits assumed): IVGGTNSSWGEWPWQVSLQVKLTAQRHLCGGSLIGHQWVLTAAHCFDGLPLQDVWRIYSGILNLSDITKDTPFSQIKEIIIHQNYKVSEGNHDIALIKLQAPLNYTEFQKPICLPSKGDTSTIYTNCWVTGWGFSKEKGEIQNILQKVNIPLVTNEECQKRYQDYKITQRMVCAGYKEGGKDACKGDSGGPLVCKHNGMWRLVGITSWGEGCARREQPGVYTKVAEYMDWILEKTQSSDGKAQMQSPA
Sequence of Human Plasma Kallikrein (P03952 20-390 partner limits assumed): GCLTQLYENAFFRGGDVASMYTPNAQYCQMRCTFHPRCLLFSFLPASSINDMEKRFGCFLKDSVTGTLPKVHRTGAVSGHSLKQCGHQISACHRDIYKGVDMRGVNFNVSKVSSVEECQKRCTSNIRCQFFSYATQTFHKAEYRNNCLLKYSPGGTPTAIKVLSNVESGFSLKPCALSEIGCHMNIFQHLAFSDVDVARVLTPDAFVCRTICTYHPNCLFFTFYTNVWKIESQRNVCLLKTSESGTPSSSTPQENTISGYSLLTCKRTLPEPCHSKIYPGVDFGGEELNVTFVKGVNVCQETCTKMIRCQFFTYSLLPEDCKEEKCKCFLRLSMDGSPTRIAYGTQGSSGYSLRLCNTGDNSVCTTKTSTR
Method for Human Cl Esterase: It was measured by using 0.1 ml of Cl esterase, 0.1 ml of 0.02 M sodium phosphate buffer solution (pH 7.4 ) and 10 μmoles of ATEe (acetyltyrosine ethyl ester) as substrate following the method described in (1).

Turning to `COC(=O)c1ccc(OC(=O)C2CCCc3c(NC(=N)N)cccc32)cc1` (centres unmarked) [Compound 118], the IC50 at Trypsin (in vitro, TAMe) was found to be 1000 µM; on Human Plasmin (in vitro, TAMe) it was 1000 µM; on Bovine Thrombin it was 80 µM; at Human Cl Esterase, 780 µM. Besides, the “% protective” value in the data set on thrombin (1 mg/kg i.p.) is reported as 20%; in the data set with thrombin (10 mg/kg i.p.) it was 30%; in the data set with thrombin (100 mg/kg i.p.), 40%. Besides, the results for the “Survived / Tested” value in the data set with thrombin (1 mg/kg i.p.), in the data set with thrombin (10 mg/kg i.p.) and in the data set with thrombin (100 mg/kg i.p.) were 2/10, 3/10 and 4/10, respectively. Moreover, the LD50 (in general, the dose expected to kill half of the subjects tested) in data set [1] came out at 192 mg/kg.
As for `N=C(N)c1ccc(CC(=O)C(=O)O)cc1` [APPA-Na, sodium p-amidinophenyl pyruvate, reference compound], the “Percent inhibition of clotting activity” value in data set [2] (3 × 10^-4 M, DMSO control) is 86.5%; in data set [2] (3 × 10^-5 M, DMSO control), -9.5%; in data set [2] (10^-3 M, DMSO control), 100.0%; in data set [2] (10^-4 M, DMSO control), 44.2%; in data set [2] (10^-5 M, DMSO control), -11.7%. Also, the “% protective” value in the data set on thrombin (1 mg/kg i.p.) was 0%; in the data set on thrombin (10 mg/kg i.p.), 33%; with thrombin (100 mg/kg i.p.), 46%. Further, the results for the “Survived / Tested” value in the data set with thrombin (1 mg/kg i.p.), with thrombin (10 mg/kg i.p.) and in the data set with thrombin (100 mg/kg i.p.) were 0/9, 3/9 and 5/11, respectively.
Consider `N=C(N)Nc1ccc2c(c1)C(C(=O)Oc1ccc(Cl)cc1)CCC2` (centres unmarked) [Compound 137], for which the IC50 was 78 µM on Trypsin (in vitro, TAMe); 1000 µM on Human Plasmin (in vitro, TAMe); 120 µM on Human Plasma Kallikrein (in vitro, TAMe); 45 µM at Bovine Thrombin; 250 µM at Human Cl Esterase. The “Percent inhibition of clotting activity” value was 10.0% in data set [2] (3 × 10^-5 M, H2O control); 2.0% in data set [2] (10^-4 M, H2O control); -5.0% in data set [2] (10^-5 M, H2O control).
For the compound `Cl.N=C(N)Nc1ccc2c(c1)C(C(=O)Oc1ccccc1)CCC2` (centres unmarked) [Compound 134, phenyl 7-guanidino-1,2,3,4-tetrahydro-1-naphthoate hydrochloride], the inhibition (in general, the percentage by which the read-out fell short of the control) at 1000 µM was 40.6% at Trypsin and less than 3.2% at Human Plasmin. For the same compound, the “inhibitory activity on plasmin” value at Human Plasmin (text of Examples) is reported as “no activity at all”. The IC50 amounted to 290 µM at Human Plasma Kallikrein (in vitro, TAMe); 27 µM against Bovine Thrombin; 370 µM at Human Cl Esterase. Also, the “inhibitory activity on kallikrein” value on Human Plasma Kallikrein (text of Examples) is on record as “had an inhibitory activity”. The “inhibitory activity on Cl-esterase” value at Human Cl Esterase (text of Examples) is “had an inhibitory activity”. Also, the “Percent inhibition of clotting activity” value in data set [2] (3 × 10^-4 M, H2O control) worked out at 97.8%; in data set [2] (3 × 10^-5 M, H2O control), 11.1%; in data set [2] (10^-3 M, H2O control) it was 100%; in data set [2] (10^-4 M, H2O control) it was 42.2%; in data set [2] (10^-5 M, H2O control) it was 13.3%. Also, the “% protective” value in the data set with thrombin (1 mg/kg i.p.) is 0%; with thrombin (10 mg/kg i.p.) it was 10%; in the data set on thrombin (100 mg/kg i.p.), 70%. Besides, the “Survived / Tested” value with thrombin (1 mg/kg i.p.) is recorded as 0/9; with thrombin (10 mg/kg i.p.), 1/10; in the data set on thrombin (100 mg/kg i.p.), 7/10.
With `N=C(N)Nc1cccc2c1CCCC2C(=O)Oc1ccc(Cl)cc1` (centres unmarked) [Compound 111], the inhibition at 1000 µM at Trypsin (at 10^-3 M, in vitro, TAMe) is 19%; on Human Plasmin (at 10^-3 M, in vitro, TAMe), less than 3.2%; on Human Plasma Kallikrein (at 10^-3 M, in vitro, TAMe, read-out: Kallikrein percent inhibition), less than 3.2%; at Bovine Thrombin (at 10^-3 M, in vitro, TAMe, read-out: Thrombin percent inhibition), 18.6%. Moreover, at Human Cl Esterase, the IC50 was found to be 680 µM. In data set [1], this compound displayed an LD50 of 333 mg/kg.
As to `CCCCOc1ccc(OC(=O)C2CCCc3ccc(NC(=N)N)cc32)cc1` (centres unmarked) [Compound 142], the inhibition at 1000 µM on Trypsin worked out at 36.9%. In addition, the IC50 at Human Plasmin (in vitro, TAMe) was found to be 360 µM; at Human Plasma Kallikrein (in vitro, TAMe), 76 µM; at Bovine Thrombin it was 24 µM; on Human Cl Esterase, 460 µM. The “Percent inhibition of clotting activity” value is recorded as 13.0% in data set [2] (3 × 10^-4 M, DMSO control); -3.0% in data set [2] (3 × 10^-5 M, DMSO control); 61.0% in data set [2] (10^-3 M, DMSO control); 0.0% in data set [2] (10^-4 M, DMSO control); -5.0% in data set [2] (10^-5 M, DMSO control).

Source of the values: patent US4214093A, “Amino- or guanidino-1,2,3,4-tetrahydro-1-naphthoic esters” (Torii & Co., Ltd., priority 1977, dated 1980).
